US8076487B2, “Pyridone derivative and herbicide” (Kumiai Chemical Industry Co., Ltd., priority 2006, dated 2011)

Tests used:
Format in all cases: in vivo
[1] = tested on: velvetleaf (Abutilon theophrasti medicus); assay: Test Example 3: herbicidal effect by application to upland field (foliage treatment); conditions: foliage treatment, 1,000 g active ingredient per 1 hectare, 14th day after application, greenhouse
How it was run: (§1)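 Greenhouse-grown plants, two weeks old in field soil, were treated by spraying their foliage with a water dilution of wettable powder. Rate: 1,000 g active ingredient in a 1,000 L/ha equivalent volume. Assessment followed at 14 days.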

[2] = tested on: barnyardgrass (Echinochloa crus-galli (L.) P. Beauv. var. crus-galli); assay: as above; conditions: foliage treatment, 1,000 g active ingredient per 1 hectare, 14th day after application, greenhouse
How it was run: as §1

[3] = tested on: slender amaranth (Amaranthus viridis L.); assay: as above; conditions: foliage treatment, 1,000 g active ingredient per 1 hectare, 14th day after application, greenhouse
How it was run: as §1

[4] = tested on: green foxtail (Setaria viridis (L.) P. Beauv.); assay: as above; conditions: foliage treatment, 1,000 g active ingredient per 1 hectare, 14th day after application, greenhouse
How it was run: as §1

[5] = tested on: heartshape false pickerelweed (Monochoria vaginalis (Burm.f.) C.Presl); assay: Test Example 1: herbicidal effect by soil application to paddy field; conditions: paddy field soil application; active ingredient 1,000 g per 1 hectare; wettable powder added dropwise to water surface the day after sowing; examined on the 21st day after application
How it was run: (§2)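 Plants were sown in flooded (3 cm) paddy soil and evaluated for herbicidal effect 21 days after soil application in a greenhouse.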

[6] = tested on: early watergrass (Echinochloa oryzicola Vasing); assay: as above; conditions: paddy field soil application; active ingredient 1,000 g per 1 hectare; wettable powder added dropwise to water surface the day after sowing; examined on the 21st day after application
How it was run: as §2

[7] = tested on: Japanese bulrush (Scirpus juncoides Roxb.); assay: as above; conditions: paddy field soil application; active ingredient 1,000 g per 1 hectare; wettable powder added dropwise to water surface the day after sowing; examined on the 21st day after application
How it was run: as §2

[8] = tested on: velvetleaf (Abutilon theophrasti medicus); assay: Test Example 2: herbicidal effect by soil application to upland field; conditions: soil surface spray, upland field soil, 1,000 g active ingredient per hectare, 21st day after application
How it was run: (§3)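 Scoring on a standard scale took place 21 days after application, with plants kept in a greenhouse. Active ingredient (1,000 g/ha, as diluted wettable powder, 1,000 L/ha) was sprayed evenly onto soil directly after sowing and covering seeds.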

[9] = tested on: barnyardgrass (Echinochloa crus-galli (L.) P. Beauv. var. crus-galli); assay: as above; conditions: soil surface spray, upland field soil, 1,000 g active ingredient per hectare, 21st day after application
How it was run: as §3

[10] = tested on: slender amaranth (Amaranthus viridis L.); assay: as above; conditions: soil surface spray, upland field soil, 1,000 g active ingredient per hectare, 21st day after application
How it was run: as §3

[11] = tested on: green foxtail (Setaria viridis (L.) P. Beauv.); assay: as above; conditions: soil surface spray, upland field soil, 1,000 g active ingredient per hectare, 21st day after application
How it was run: as §3

| SMILES | herbicidal effect, Velvetleaf [1] | herbicidal effect, Barnyardgrass [2] | herbicidal effect, Slender Amaranth [3] | herbicidal effect, Green Foxtail [4] | herbicidal effect, Monochoria vaginalis (Burm. f.) C. Presl [5] | herbicidal effect, Echinochloa oryzicola Vasing [6] | herbicidal effect, Scirpus juncoides Roxb. [7] | herbicidal effect (index), Velvetleaf [8] | herbicidal effect (index), Barnyardgrass [9] | herbicidal effect (index), Slender Amaranth [10] | herbicidal effect (index), Green Foxtail [11] |
| --- | --- | --- | --- | --- | --- | --- | --- | --- | --- | --- | --- |
| COc1ccc(-n2c(C(F)(F)F)ccc(C(=O)C3=C(O)CCCC3=O)c2=O)cc1Cl [I-110] | 4 (70 to less than 90% of herbicidal effect and crop phytotoxicity) | 5 (90% or more of herbicidal effect and crop phytotoxicity) | 5 (90% or more of herbicidal effect and crop phytotoxicity) | 3 (50 to less than 70% of herbicidal effect and crop phytotoxicity) | 5 (90% or more of herbicidal effect and crop phytotoxicity) | 5 (90% or more of herbicidal effect and crop phytotoxicity) | 5 (90% or more of herbicidal effect and crop phytotoxicity) | 5 (90% or more of herbicidal effect and crop phytotoxicity) | 5 (90% or more of herbicidal effect and crop phytotoxicity) | 5 (90% or more of herbicidal effect and crop phytotoxicity) | 4 (70 to less than 90% of herbicidal effect and crop phytotoxicity) |
| COCc1cc(-n2c(C(F)(F)F)ccc(C(=O)C3=C(O)CCCC3=O)c2=O)ccc1F [I-111] | 5 (90% or more of herbicidal effect and crop phytotoxicity) | 5 (90% or more of herbicidal effect and crop phytotoxicity) | 5 (90% or more of herbicidal effect and crop phytotoxicity) | 5 (90% or more of herbicidal effect and crop phytotoxicity) | 5 (90% or more of herbicidal effect and crop phytotoxicity) | 5 (90% or more of herbicidal effect and crop phytotoxicity) | 5 (90% or more of herbicidal effect and crop phytotoxicity) | 5 (90% or more of herbicidal effect and crop phytotoxicity) | 5 (90% or more of herbicidal effect and crop phytotoxicity) | 5 (90% or more of herbicidal effect and crop phytotoxicity) | 5 (90% or more of herbicidal effect and crop phytotoxicity) |
| O=C1CCCC(O)=C1C(=O)c1ccc(C(F)(F)F)n(Cc2ccccc2)c1=O [I-114] | 5 (90% or more of herbicidal effect and crop phytotoxicity) | 5 (90% or more of herbicidal effect and crop phytotoxicity) | 5 (90% or more of herbicidal effect and crop phytotoxicity) | 4 (70 to less than 90% of herbicidal effect and crop phytotoxicity) | 5 (90% or more of herbicidal effect and crop phytotoxicity) | 5 (90% or more of herbicidal effect and crop phytotoxicity) | 5 (90% or more of herbicidal effect and crop phytotoxicity) | 5 (90% or more of herbicidal effect and crop phytotoxicity) | 5 (90% or more of herbicidal effect and crop phytotoxicity) | 5 (90% or more of herbicidal effect and crop phytotoxicity) | 4 (70 to less than 90% of herbicidal effect and crop phytotoxicity) |
| N#Cc1cccc(Cn2c(C(F)(F)F)ccc(C(=O)C3=C(O)CCCC3=O)c2=O)c1 [I-118] | 5 (90% or more of herbicidal effect and crop phytotoxicity) | 5 (90% or more of herbicidal effect and crop phytotoxicity) | 5 (90% or more of herbicidal effect and crop phytotoxicity) | 5 (90% or more of herbicidal effect and crop phytotoxicity) | 5 (90% or more of herbicidal effect and crop phytotoxicity) | 5 (90% or more of herbicidal effect and crop phytotoxicity) | 5 (90% or more of herbicidal effect and crop phytotoxicity) | 5 (90% or more of herbicidal effect and crop phytotoxicity) | 5 (90% or more of herbicidal effect and crop phytotoxicity) | 5 (90% or more of herbicidal effect and crop phytotoxicity) | 4 (70 to less than 90% of herbicidal effect and crop phytotoxicity) |
| N#Cc1ccc(Cn2c(C(F)(F)F)ccc(C(=O)C3=C(O)CCCC3=O)c2=O)cc1 [I-119] | 5 (90% or more of herbicidal effect and crop phytotoxicity) | 5 (90% or more of herbicidal effect and crop phytotoxicity) | 5 (90% or more of herbicidal effect and crop phytotoxicity) | 5 (90% or more of herbicidal effect and crop phytotoxicity) | 5 (90% or more of herbicidal effect and crop phytotoxicity) | 5 (90% or more of herbicidal effect and crop phytotoxicity) | 5 (90% or more of herbicidal effect and crop phytotoxicity) | 5 (90% or more of herbicidal effect and crop phytotoxicity) | 5 (90% or more of herbicidal effect and crop phytotoxicity) | 5 (90% or more of herbicidal effect and crop phytotoxicity) | 5 (90% or more of herbicidal effect and crop phytotoxicity) |
| CC1=NOC(Cn2c(C(F)(F)F)ccc(C(=O)C3=C(O)CCCC3=O)c2=O)C1 (stereo not shown) [I-126] | 5 (90% or more of herbicidal effect and crop phytotoxicity) | 5 (90% or more of herbicidal effect and crop phytotoxicity) | 5 (90% or more of herbicidal effect and crop phytotoxicity) | 5 (90% or more of herbicidal effect and crop phytotoxicity) | 5 (90% or more of herbicidal effect and crop phytotoxicity) | 5 (90% or more of herbicidal effect and crop phytotoxicity) | 5 (90% or more of herbicidal effect and crop phytotoxicity) | 5 (90% or more of herbicidal effect and crop phytotoxicity) | 5 (90% or more of herbicidal effect and crop phytotoxicity) | 5 (90% or more of herbicidal effect and crop phytotoxicity) | 5 (90% or more of herbicidal effect and crop phytotoxicity) |
| Cc1cc(Cn2c(C(F)(F)F)ccc(C(=O)C3=C(O)CCCC3=O)c2=O)on1 [I-128] | 5 (90% or more of herbicidal effect and crop phytotoxicity) | 5 (90% or more of herbicidal effect and crop phytotoxicity) | 5 (90% or more of herbicidal effect and crop phytotoxicity) | 4 (70 to less than 90% of herbicidal effect and crop phytotoxicity) | 5 (90% or more of herbicidal effect and crop phytotoxicity) | 5 (90% or more of herbicidal effect and crop phytotoxicity) | 5 (90% or more of herbicidal effect and crop phytotoxicity) | 5 (90% or more of herbicidal effect and crop phytotoxicity) | 5 (90% or more of herbicidal effect and crop phytotoxicity) | 5 (90% or more of herbicidal effect and crop phytotoxicity) | 4 (70 to less than 90% of herbicidal effect and crop phytotoxicity) |
| O=C1CCCC(O)=C1C(=O)c1ccc(C(F)(F)F)n(CCc2ccccc2)c1=O [I-129] | 5 (90% or more of herbicidal effect and crop phytotoxicity) | 5 (90% or more of herbicidal effect and crop phytotoxicity) | 5 (90% or more of herbicidal effect and crop phytotoxicity) | 5 (90% or more of herbicidal effect and crop phytotoxicity) | 4 (70 to less than 90% of herbicidal effect and crop phytotoxicity) | 5 (90% or more of herbicidal effect and crop phytotoxicity) | 5 (90% or more of herbicidal effect and crop phytotoxicity) | 5 (90% or more of herbicidal effect and crop phytotoxicity) | 5 (90% or more of herbicidal effect and crop phytotoxicity) | 5 (90% or more of herbicidal effect and crop phytotoxicity) | 4 (70 to less than 90% of herbicidal effect and crop phytotoxicity) |
